Test results taken from patent US20220031680A1, “Donecopride As Neuroprotective Agent In the Treatment of Neurodegenerative Diseases” (priority 2018, published 2022).

What was measured:
[1] = tested on: rat primary hippocampal neurons injured with Aβ 1-42; assay: Survival and neurite network of MAP-2 neurons in primary hippocampal neurons injured with Aβ1-42; type: cell-based
Experimental: Rat hippocampal neurons were cultured as described by Callizot et al. (2013) J. Neurosci. Res. 91706-716. Pregnant female rats of 17 days gestation (Rats Wistar; Janvier Labs France) were killed using a deep anesthesia with CO2 chamber followed by a cervical dislocation. Then, fetuses were removed from the uterus and immediately placed in ice-cold L15 Leibovitz medium with a 2% penicillin (10,000 U/ml) and streptomycin (10 mg/ml) solution (PS) and 1% bovine serum albumin (BSA). Hippocampal neurons were treated for 20 min at 37° C. with a trypsin-EDTA solution at a final concentration of 0.05% trypsin and 0.02% EDTA. The dissociation was stopped by adding Dulbecco's modified Eagle's medium (DMEM) with 4.5 g/l of glucose, containing DNAse I grade II (final concentration 0.5 mg/ml) and 10% fetal calf serum (FCS). Cells were mechanically dissociated by three forced passages through the tip of a 10-ml pipette and then centrifuged at 515×g for 10 min at 4° C. The supernatant was discarded, and the pellet was resuspended in a defined culture medium consisting of Neurobasal medium with a 2% solution of B27 supplement, 2 mmol/l of L-glutamine, 2% of PS solution, and 10 ng/ml of brain-derived neurotrophic factor (BDNF). Viable cells were counted in a Neubauer cytometer, using the trypan blue exclusion test. Cells were seeded at a density of 20,000 per well in 96-well plates precoated with poly-L-lysine and cultured at 37° C. in an air (95%)-CO2 (5%) incubator. The medium was changed every 2 days.
(§1) The hippocampal neurons were exposed with Aβ solutions (see below) after 17 days of culture. The Aβ1-42 preparation was done following the procedure described by Callizot et al. (2013) J. Neurosci. Res. 91706-716. Briefly, Aβ1-42 peptide was dissolved in the defined culture medium mentioned above, at an initial concentration of 40 μM. This solution was gently agitated for 3 days at 37° C. in the dark and immediately used after being properly diluted in culture medium to the concentrations used (20 μM (plate 1) or 2.5 μM (plate 2) corresponding to 2 μM or 0.25 μM of oligomers (AβO) respectively).
(§2) Donecopride fumarate was solved in culture medium and preincubated 1 h before Aβ application. Aβ1-42 preparation was added to a final concentration of 20 or 2.5 μM (=2 μM or 0.25 μM of AβO, evaluated by automatic Western Blot) diluted in control medium in presence of Donecopride.
Donecopride fumarate (Donecopride) was tested on one culture in a 96 well plate (6 wells per conditions). The compound was preincubated one hour before Aβ application. The following conditions were assessed:
(§3) 24 hours after intoxication, the hippocampal neurons were fixed by a cold solution of ethanol (95%) and acetic acid (5%) for 5 min at −20° C. After permeabilization with 0.1% of saponin, cells were incubated for 2 h with:
a) chicken polyclonal antibody anti microtubule-associated-protein 2 (MAP-2), diluted at 1/1000 in PBS containing 1% fetal calf serum and 0.1% of saponin (this antibody allows the specific staining of neuronal cell bodies and neurites; and allow the study of neuronal cell death and neurite network).
(§4) For each condition, 30 pictures (representative of the whole well area) per well were taken using ImageXpress (Molecular Devices) at 20× magnification. All images were taken with the same acquisition parameters. Analyses were performed automatically by using Custom Module Editor (Molecular Devices).
(§5) The following endpoints were assessed: • Total number of neurons (neuron survival, number of MAP-2 positive neurons) • Neurite network (in μm of MAP-2 positive neurons) • area of tau in neurons (μm^2, overlapping with MAP-2 positive neurons).
All values are expressed as mean+/−SEM. Statistical analysis was performed by one-way ANOVA, followed by PLSD Fisher's test, p<0.05 were considered significant.
Rat hippocampal neurons were cultured as described by Callizot et al. (2013) J. Neurosci. Res. 91:706-716. […]

Tau (AT100) = assay: Phosphorylation of Tau (AT100) in MAP-2 hippocampal neurons injured with Aβ1-42; type: cell-based, rat; conditions: Aβ1-42 injured hippocampal neurons; for effect on Tau hyperphosphorylation: Example 4
Experimental: as §1, §2, §3
b) mouse monoclonal antibody anti-phospho Tau (AT100) at dilution of 1/400 in PBS containing 1% fetal calf serum and 0.1% of saponin.
as §4, §5
(§6) Injury: The hippocampal neurons were exposed with Aβ solutions (see below) after 17 days of culture. The Aβ1-42 preparation was done following the procedure described by Callizot et al. (2013) J. Neurosci. Res. 91:706-716. The batch number of the Aβ1-42 used in this study contains 10% of oligomers (quantification by WB as performed in Combes et al. (2015) J. Neurosci. Res. 93:633-643). Briefly, Aβ1-42 peptide was dissolved in the defined culture medium mentioned above, at an initial concentration of 40 μmol/1. This solution was gently agitated for 3 days at 37° C. in the dark and immediately used after being properly diluted in culture medium to the concentrations used (20 μmol/l or 2.5 μmol/l corresponding to 2 μmol/l or 0.25 μmol/l of oligomers (AβO) respectively). Aβ1-42 preparation was added to a final concentration of 20 or 2.5 μmol/l (respectively 2 μmol/l or 0.25 μmol/l of AβO, determined by automatic WB) diluted in control medium in presence of the compounds.
Immunostaining: MAP-2/AT100—After fixation and permeabilization, cells were incubated for 2 hours with: • a chicken polyclonal antibody anti microtubule-associated-protein 2 (MAP-2) at dilution of 1/1000 in PBS containing 1% fetal calf serum and 0.1% saponin (this antibody stains specifically cell bodies and neurites, allowing study of neuronal cell death and neurite network); and • a mouse monoclonal antibody anti-phospho Tau (AT100) at dilution of 1/100 in PBS containing 1% fetal calf serum and 0.1% saponin.
For each condition, 30 pictures (representative of the whole well area) per well were taken using ImageXpress® (Molecular Devices) with 20× magnification. All images were generated using the same acquisition parameters. From images, analyses were directly and automatically performed by Custom Module Editor® (Molecular Devices). The following read-outs were investigated: • Total number of neurons (neuron survival, number of MAP-2 positive neurons) • Neurite network (in μm of MAP-2 positive neurons) • Area of AT100 (μm^2, overlapping with MAP-2 positive neurons).

[2] = tested on: rat primary hippocampal neurons injured with Aβ 1-42; assay: Number of synapses (PSD95/SYN overlap) in primary hippocampal neurons injured with Aβ1-42; type: cell-based
Experimental: as §1, §2, §3
a) mouse monoclonal antibody anti post synaptic density 95 kDa (PSD95) at a dilution of 1/100 in PBS containing 1% fetal calf serum and 0.1% of saponin.
b) Rabbit polyclonal antibody anti-synaptophysin (SYN) at the dilution of 1/100 in PBS containing 1% fetal calf serum and 0.1% of saponin.
For each condition, 40 pictures per well were taken using ImageXpress (Molecular Devices) with 40× magnification. All images were taken with the same acquisition parameters.
Synapses evaluation was performed automatically by using Custom module editor (Molecular Devices).
The following endpoints were assessed: • Total number of synapses (overlapping between PSD95/SYN).
To assess the formation of synapses, the distribution of PSD-95, a post-synaptic marker, and synaptophysin, a pre-synaptic marker, was studied. A structure positive for both PD-95 and synaptophysin staining was considered as a synapse.
as §6
Immunostaining: PSD95 and SYN—After fixation and permeabilization, cells were incubated for 2 hours with: • mouse monoclonal antibody anti post synaptic density 95 kDa (PSD95) at dilution of 1/200 in PBS containing 1% fetal calf serum and 0.1% saponin; • rabbit polyclonal antibody anti-synaptophysin (SYN) at the dilution of 1/100 in PBS containing 1% fetal calf serum and 0.1% saponin.
For each condition, 40 pictures per well were taken using ImageXpress (Molecular Devices) with 40× magnification. All images were taken with the same conditions. Synapses evaluation were performed automatically by using Custom Module Editor® (Molecular Devices). The following endpoints were assessed: • Number of synapses (overlapping between PSD95/SYN)

[3] = Aβ1-42 injured hippocampal neurons, Example 4

| Compound | neuroprotective effect (survival, neurite and synaptic network) [1, 3] | effect on Tau hyperphosphorylation (Tau (AT100)) | doses with neuroprotective effect on survival ([1]; Aβ1-42 injured hippocampal neurons (FIG. 5A)) [nM] | neurite length normalized by number of neurons (neuritic growth) ([1]; Aβ1-42 injured hippocampal neurons (FIG. 5C)) | effect on neurite network [1, 3] | concentration up to which active (survival and neurite network) ([1]; Aβ1-42 injured hippocampal neurons, Example 5 (FIG. 9A,B,C)) [µM] | doses increasing the number of synapses ([2]; Aβ1-42 injured hippocampal neurons (FIG. 6)) [nM] | concentration with neuroprotective effect on synapses ([2]; Aβ1-42 injured hippocampal neurons, Example 5 (FIG. 10)) [pM] | concentration with significant reduction of Tau hyperphosphorylation (Tau (AT100); Example 5 (FIG. 9D)) [pM] |
| --- | --- | --- | --- | --- | --- | --- | --- | --- | --- |
| COc1cc(N)c(Cl)cc1C(=O)CCC1CCN(CC2CCNCC2)CC1 [MR31176] | neuroprotective effect at high concentrations | significant effect on Tau hyperphosphorylation was also observed at high concentration | – | – | – | – | – | – | – |
| COc1cc(N)c(Cl)cc1C(=O)CCC1CCN(CC2CCCCCC2)CC1 [MR31192] | very strong neuroprotective effect at very low doses | important effect | 1 to 5 | neurotrophic effect | very large effect was also observed on neurite network at every tested dose | ≤ 500 | 1 to 5 | 500 | 100 |
